Measured values as given in patent US6727275B2, “Pyrrolidinone derivatives” (UCB, S.A./N.V., priority 2001, dated 2004).
Where two headings read alike, the source gives them in different places.

Target: T1, CCR2 (Homo sapiens, UniProt P41597)
T1 sequence (P41597 1-360 isoform P41597-2): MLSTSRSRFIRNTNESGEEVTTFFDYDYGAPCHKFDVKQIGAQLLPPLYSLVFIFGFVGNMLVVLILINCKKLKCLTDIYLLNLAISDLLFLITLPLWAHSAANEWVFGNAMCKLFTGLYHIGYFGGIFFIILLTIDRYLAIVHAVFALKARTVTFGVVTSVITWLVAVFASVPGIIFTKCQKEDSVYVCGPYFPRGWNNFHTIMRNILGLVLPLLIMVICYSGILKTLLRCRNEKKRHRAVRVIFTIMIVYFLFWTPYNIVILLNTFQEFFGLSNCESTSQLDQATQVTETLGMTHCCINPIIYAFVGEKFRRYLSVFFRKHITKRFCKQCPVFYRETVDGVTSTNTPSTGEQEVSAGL
Assay: Binding assay: inhibition of 125I-MCP-1 binding to THP-1 cells
Parameters: CCR2 is also expressed in the human monocytic cell line THP-1; endogenous in cells; host or cells: THP-1 (human monocytic cell line), whole cells
Method: Antagonism of the CCR2 receptor is determined by a binding assay using the human monocytic cell line THP-1. Cells are suspended in assay buffer (RPMI+1% BSA+25 mM HEPES) at 3×10^6 cells/ml and an aliquot (180 μl) added to a 0.5 ml siliconized Eppendorf tube. […] After incubation for 1 hr at room temperature, the cell suspension is centrifuged through oil and the cell pellets counted to quantitate cell-bound ligand. Nonspecific (NS) binding of radioligand is determined by the addition of 100 nM cold MCP-1. Control binding is determined by the addition of buffer without compound.

[1] = THP-1 cells, 0.1 nM 125I-MCP-1, 1 hr at room temperature, read-out: Inhibition of 125I-MCP-1 binding to THP-1 cells, IC50

CC(=O)C1=C(O)C(=O)N(c2ccc(Cl)c(N)c2)C1C1CCCCC1 (racemic) [Compound 71, 4-acetyl-1-(3-amino-4-chlorophenyl)-5-cyclohexyl-3 hydroxy-1,5-dihydro-2H-pyrrol-2-one]
IC50 [1]: ≤ 5 µM

CC(=O)C1=C(O)C(=O)N(c2ccc(C)cc2)C1CC(C)(C)C (racemic) [Compound 78, 4-acetyl-3-hydroxy-1-(4-methylphenyl)-5-neopentyl-1,5-dihydro-2H-pyrrol-2-one]
IC50 [1]: ≤ 5 µM

CC(=O)C1=C(O)C(=O)N(c2ccc(C)cc2)C1C1C=CCCC1 (centres unmarked) [Compound 50, 4-acetyl-5-(cyclohex-2-en-1-yl)-3-hydroxy-1-(4-methylphenyl)-1,5-dihydro-2H-pyrrol-2-one]
IC50 [1]: ≤ 5 µM

CC(=O)C1=C(O)C(=O)N(c2ccc(C)c(F)c2)C1C1CCCCC1 (racemic) [Compound 47, 4-acetyl-5-cyclohexyl-1-(3-fluoro-4-methylphenyl)-3-hydroxy-1,5-dihydro-2H-pyrrol-2-one]
IC50 [1]: ≤ 5 µM

CC(=O)C1=C(O)C(=O)N(c2ccc(C)cc2)C1C1CC2C=CC1C2 (centres unmarked) [Compound 79, 4-acetyl-5-bicyclo[2.2.1]hept-5-en-2-yl-3-hydroxy-1-(4-methylphenyl)-1,5-dihydro-2H-pyrrol-2-one]
IC50 [1]: ≤ 5 µM

CC(=O)C1=C(O)C(=O)N(c2ccc(Cl)cn2)C1C1CCCCC1 (racemic) [Compound 172, 4-acetyl-1-(5-chloro-2-pyridinyl)-5-cyclohexyl-3-hydroxy-1,5-dihydro-2H-pyrrol-2-one]
IC50 [1]: ≤ 5 µM

CC(=O)C1=C(O)C(=O)N(c2cccc(Br)c2)C1C1CCCCC1 (racemic) [Compound 44, 4-acetyl-1-(3-bromophenyl)-5-cyclohexyl-3-hydroxy-1,5-dihydro-2H-pyrrol-2-one]
IC50 [1]: ≤ 5 µM

CC(=O)C1=C(O)C(=O)N(c2c(F)cc(Br)cc2F)C1C1CCCCC1 (racemic) [Compound 154, 4-acetyl-1-(4-bromo-2,6-difluorophenyl)-5-cyclohexyl-3-hydroxy-1,5-dihydro-2H-pyrrol-2-one]
IC50 [1]: ≤ 5 µM

CC(=O)C1=C(O)C(=O)N(c2cccc(C)c2)C1C1CCCCC1 (racemic) [Compound 16, 4-acetyl-5-cyclohexyl-3-hydroxy-1-(3-methylphenyl)-1,5-dihydro-2H-pyrrol-2-one]
IC50 [1]: ≤ 5 µM

CCCC1C(C(C)=O)=C(O)C(=O)N1c1ccc(C)c(C)c1 (racemic) [Compound 74, 4-acetyl-1-(3,4-dimethylphenyl)-3-hydroxy-5-propyl-1,5-dihydro-2H-pyrrol-2-one]
IC50 [1]: ≤ 5 µM

CC(=O)C1=C(S)C(=O)N(c2ccc(Cl)cc2)C1C1CCCCC1 (racemic) [Compound 157, 4-acetyl-1-(4-chlorophenyl)-5-cyclohexyl-3-mercapto-1,5-dihydro-2H-pyrrol-2-one]
IC50 [1]: ≤ 5 µM

CC(=O)C1=C(O)C(=O)N(c2ccc(Cl)c([N+](=O)[O-])c2)C1C1CCCCC1 (racemic) [Compound 66, 4-acetyl-1-(4-chloro-3-nitrophenyl)-5-cyclohexyl-3-hydroxy-1,5-dihydro-2H-pyrrol-2-one]
IC50 [1]: ≤ 5 µM

Cc1ccc(N2C(=O)C(O)=C(C(=O)C(C)(C)C)C2C2CCCCC2)cc1 (racemic) [Compound 41, 5-cyclohexyl-4-(2,2-dimethylpropanoyl)-3-hydroxy-1-(4-methylphenyl)-1,5-dihydro-2H-pyrrol-2-one]
IC50 [1]: ≤ 5 µM

CC(=O)C1=C(O)C(=O)N(c2ccc(C)cc2)C1CC(C)C (racemic) [Compound 40, 4-acetyl-3-hydroxy-5-isobutyl-1-(4-methylphenyl)-1,5-dihydro-2H-pyrrol-2-one]
IC50 [1]: ≤ 5 µM

CC(=O)C1=C(O)C(=O)N(c2ccc(Cl)c(C)c2)[C@@H]1C1CCCC1 [Compound 135, (R)-4-acetyl-1-(4-chloro-3-methylphenyl)-5-cyclopentyl-3-hydroxy-1,5-dihydro-2H-pyrrol-2-one]
IC50 [1]: ≤ 5 µM

CC(=O)C1=C(O)C(=O)N(c2cccc(Cl)c2)C1C1CCCCC1 (racemic) [Compound 43, 4-acetyl-1-(3-chlorophenyl)-5-cyclohexyl-3-hydroxy-1,5-dihydro-2H-pyrrol-2-one]
IC50 [1]: ≤ 5 µM

C=C1CCC(C2C(C(C)=O)=C(O)C(=O)N2c2ccc(Cl)cc2)CC1 (racemic) [Compound 127, 4-acetyl-1-(4-chlorophenyl)-3-hydroxy-5-(4-methylenecyclohexyl)-1,5-dihydro-2H-pyrrol-2-one]
IC50 [1]: ≤ 5 µM

CC(=O)C1=C(O)C(=O)N(c2ccc(Cl)c(Cl)c2)C1C1CCCCC1 (racemic) [Compound 48, 4-acetyl-5-cyclohexyl-1-(3,4-dichlorophenyl)-3-hydroxy-1,5-dihydro-2H-pyrrol-2-one]
IC50 [1]: ≤ 5 µM

CC(=O)C1=C(O)C(=O)N(c2ccccc2)C1C1CCCCC1 (racemic) [Compound 23, 4-acetyl-5-cyclohexyl-3-hydroxy-1-phenyl-1,5-dihydro-2H-pyrrol-2-one]
IC50 [1]: ≤ 5 µM

Cc1ccc(N2C(=O)C(O)=C(C(N)=O)C2C2CCCCC2)cc1 (racemic) [Compound 131, 2-cyclohexyl-4-hydroxy-1-(4-methylphenyl)-5-oxo-2,5-dihydro-1H-pyrrole-3-carboxamide]
IC50 [1]: ≤ 5 µM

CC(=O)C1=C(O)C(=O)N(c2ccc(C(F)(F)F)cc2)C1C1CCCCC1 (racemic) [Compound 49, 4-acetyl-5-cyclohexyl-3-hydroxy-1-[4-(trifluoromethyl)phenyl]-1,5-dihydro-2H-pyrrol-2-one]
IC50 [1]: ≤ 5 µM

CCC(C)C(C)C1C(C(C)=O)=C(O)C(=O)N1c1ccc(C)cc1 (centres unmarked) [Compound 19, 4-acetyl-5-(1,2-dimethylbutyl)-3-hydroxy-1-(4-methylphenyl)-1,5-dihydro-2H-pyrrol-2-one]
IC50 [1]: ≤ 5 µM

CC(=O)C1=C(O)C(=O)N(c2ccc(Br)cc2)C1C1CCCCC1 (racemic) [Compound 17, 4-acetyl-1-(4-bromophenyl)-5-cyclohexyl-3-hydroxy-1,5-dihydro-2H-pyrrol-2-one]
IC50 [1]: ≤ 5 µM

CC(=O)C1=C(O)C(=O)N(c2ccc(Cl)cc2)C1C1CC2C=CC1C2 (centres unmarked) [Compound 121, 4-acetyl-5-bicyclo[2.2.1]hept-5-en-2-yl-1-(4-chlorophenyl)-3-hydroxy-1,5-dihydro-2H-pyrrol-2-one]
IC50 [1]: ≤ 5 µM

CC(=O)C1=C(O)C(=O)N(c2ccc(C)c(C)c2)C1C1CCCCC1 (racemic) [Compound 65, 4-acetyl-5-cyclohexyl-1-(3,4-dimethylphenyl)-3-hydroxy-1,5-dihydro-2H-pyrrol-2-one]
IC50 [1]: ≤ 5 µM

CC(=O)C1=C(O)C(=O)N(c2ccc(F)cc2)C1C1CCCCC1 (racemic) [Compound 25, 4-acetyl-5-cyclohexyl-1-(4-fluorophenyl)-3-hydroxy-1,5-dihydro-2H-pyrrol-2-one]
IC50 [1]: ≤ 5 µM

CC(=O)C1=C(O)C(=O)N(c2ccc(C)cc2)C1C12CC3CC(CC(C3)C1)C2 (racemic) [Compound 58, 4-acetyl-5-(1-adamantyl)-3-hydroxy-1-(4-methylphenyl)-1,5-dihydro-2H-pyrrol-2-one]
IC50 [1]: ≤ 5 µM

COC1CCC(C2C(C(C)=O)=C(O)C(=O)N2c2ccc(Cl)cc2)CC1 (racemic) [Compound 132, 4-acetyl-1-(4-chlorophenyl)-3-hydroxy-5-(4-methoxycyclohexyl)-1,5-dihydro-2H-pyrrol-2-one]
IC50 [1]: ≤ 5 µM

CC(=O)C1=C(O)C(=O)N(c2ccc(Cl)c(C(F)(F)F)c2)C1C1CCCCC1 (racemic) [Compound 55, 4-acetyl-1-[4-chloro-3-(trifluoromethyl)phenyl]-5-cyclohexyl-3-hydroxy-1,5-dihydro-2H-pyrrol-2-one]
IC50 [1]: ≤ 5 µM

CC(=O)C1=C(O)C(=O)N(c2ccc(C)c(C)c2)C1CC(C)(C)C (racemic) [Compound 116, 4-acetyl-1-(3,4-dimethylphenyl)-3-hydroxy-5-neopentyl-1,5-dihydro-2H-pyrrol-2-one]
IC50 [1]: ≤ 5 µM

CC(=O)C1=C(O)C(=O)N(c2ccc(Cl)cc2)C1CC1CCCC1 (racemic) [Compound 134, 4-acetyl-1-(4-chlorophenyl)-5-(cyclopentylmethyl)-3-hydroxy-1,5-dihydro-2H-pyrrol-2-one]
IC50 [1]: ≤ 5 µM

CCCC(CCC)C1C(C(C)=O)=C(O)C(=O)N1c1ccc(C)cc1 (racemic) [Compound 39, 4-acetyl-3-hydroxy-1-(4-methylphenyl)-5-(1-propylbutyl)-1,5-dihydro-2H-pyrrol-2-one]
IC50: ≤ 5 µM

CC(=O)C1=C(O)C(=O)N(c2ccc(C)cc2)C1c1ccc(Br)cc1 (racemic) [Compound 20, 4-acetyl-5-(4-bromophenyl)-3-hydroxy-1-(4-methylphenyl)-1,5-dihydro-2H-pyrrol-2-one]
IC50 [1]: ≤ 5 µM

CNC(=O)C1=C(O)C(=O)N(c2ccc(C)cc2)C1C1CCCCC1 (racemic) [Compound 126, 2-cyclohexyl-4-hydroxy-N-methyl-1-(4-methylphenyl)-5-oxo-2,5-dihydro-1H-pyrrole-3-carboxamide]
IC50 [1]: ≤ 5 µM

CC(=O)C1=C(O)C(=O)N(c2ccc(C(C)C)cc2)C1C1CCCCC1 (racemic) [Compound 52, 4-acetyl-5-cyclohexyl-3-hydroxy-1-(4-isopropylphenyl)-1,5-dihydro-2H-pyrrol-2-one]
IC50 [1]: ≤ 5 µM
